The text below walks through data of patent publication US7569596B2, “Imidazolamino compounds” (National Health Research Institutes, priority 2002, dated 2009).

For this assay, the system named is Murine leukemic P388 cells. Description: In vivo anticancer activity, murine leukemic P388 model. Also on record: species or system DBA/2J mice. The conditions noted are these: mice intravenously inoculated with P388 cells; given P.O. or I.V. at different doses. On the procedure: Evaluation of in vivo Anticancer Activity
The in vivo anticancer activities of the compounds were evaluated by the following murine leukemic P388 model. Inbred female DBA/2J mice of 4-5 week-old were purchased from the National Laboratory Animals Breeding and Research Center, Taipei, Taiwan, ROC. Murine leukemic P388 cells were purchased from the Japanese Collection of Research Bioresources, Japan. P388 cells were cultured and propagated in RPM11640 medium supplemented with 50 μM 2-mercaptoethanol and 10% fetal bovine serum. Mice at the age of 6 weeks were grouped as the treatment, negative control and positive control groups at 7 to 8 mice per group. All mice were intravenously inoculated with the P388 cells at one million per mouse one day before the treatments initiated. Compound 6 was dissolved in dimethyl sulfoxide (DMSO) and then diluted in 0.5% carboxymethyl cellulose or a Cremophor-based vehicle with the final concentration of DMSO less than 0.5%. Different treatment groups were orally (P.O.) or intravenously (I.V.) given, respectively, with Compound 6 of different doses for a pharmacological dose-response relationship. The mice of the negative control group were treated with the dosing vehicle only. […] The cancer cell-inoculated animals were monitored twice daily. Survival fractions of the mice were recorded. […]

For the molecule `Nc1nc(-c2cccs2)cn1-c1nc(-c2ccccc2)cs1` [Compound 6, 1-(4-phenyl-1,3-thiazol-2-yl)-4-(2-thienyl)-1H-2-imidazolamine], the “survival rate of the inoculated mice” value is on record as “increased the survival rate”.
